Measurements from BindingDB's records for doi:10.1021/jm060460o (University of Michigan, 2006).

Test: Inhibition of growth of human PC3 cell overexpressing Bcl2

IC50 [µM] | SMILES
4 | O=C(Nc1ccc(S(=O)(=O)c2ccccc2)cc1)c1cc(Cc2ccccc2)c(O)c(O)c1O [N-(benzenesulfonyl-phenyl)-2,3,4-trihydroxy-5-benzyl-benzamide]
5 | O=C(Nc1ccccc1)c1cc(Cc2ccccc2)c(O)c(O)c1O [N-phenyl-2,3,4-trihydroxy-5-benzyl-benzamide]

The remaining lines, values behind:

SMILES | IC50 [µM]
CC(C)c1cc(C(=O)Nc2ccccc2)c(O)c(O)c1O [2,3,4-trihydroxy-5-isopropyl-N-phenyl-benzamide] | 7
CC(C)c1ccccc1Cc1cc(C(=O)Nc2ccc(S(=O)(=O)c3ccccc3C(C)(C)C)cc2)c(O)c(O)c1O [(N-[(2-tert-butylbenzenesulfonyl)phenyl]-2,3,4-trihydroxy-5-(2-isopropylbenzyl)benzamide] | 0.2
COc1c(Cc2ccccc2C(C)C)cc(C(=O)Nc2ccc(S(=O)(=O)c3ccccc3C(C)(C)C)cc2)c(OC)c1OC [N-[(2-Tert-butyl-benzenesulfonyl)-phenyl]-2,3,4-trimethoxyl-5-(2-isopropyl-benzyl)-benzamide] | > 100
